PMC6804157, “Synthesis, Physicochemical Properties, and Biological Activities of 4-(S-Methyl-N-(2,2,2-Trifluoroacetyl)Sulfilimidoyl) Anthranilic Diamide” (Molecules, 2019)
Several values for one entry are separate records, joined by “and”; a condition that tells them apart may be missing. Identical values can stand only once. Like-named read-outs stand apart in the source and are kept apart here.

Assays:
[1] = format: in vitro ADME; conditions: PAMPA
Protocol: (§1) Because we believed that the physicochemical properties of newly-prepared diamides play important roles in their insecticidal activities, the studies were extended to investigate the bioavailability of organosulfur-based crop-protecting agents 14, 15a, 15b, 16a, and 16b in terms of plant systemic properties and membrane permeability. As references, their properties of chlorantraniliprole and cyantraniliprole were also measured.
(§2) [37] The physicochemical measurements for determinations of equilibrium solubility, log P, and PAMPA permeability were performed by Drug Discovery Platform Technology Team, KRICT, Korea.
(§3) Table S3. Physical properties of organosulfur-substituted anthranilic […]
(§4) Entry X Y Log P c,d Permeability e […]
(§5) aMethod for determination of equilibrium solubility: μSOL 25; bat 25 ℃ and pH 7.4; cUsing ACD / Labs T3 method (pH – metric); dfor graphs, please see the supporting information, eMethod for determination of […]

[2] = Equilibrium solubility (μSOL); format: physicochemical; conditions: 25 °C, thermodynamic from solid
Protocol: as §1, §2, §3, §4, §5

[3] = pH-metric log P (ACD/Labs T3 method); format: physicochemical
Protocol: as §1
[39] For LogP, Using ACD/Labs T3 method (pH—metric), for graphs; please see the Supplementary materials.
as §3, §4, §5

[4] = system: third instar larvae of Spodoptera litura; assay: whole plant or invertebrate; format: in vivo; conditions: for mortality at 25 ppm / mortality at 50 ppm: Spodoptera litura
Protocol: For the practical test, newly-prepared compounds 14–16 were evaluated for their insecticidal activities against the third instar larvae of Spodoptera litura according to the reported leaf-dip method.
[35] According to the literature 3a, 3b, and 3d methods, the insecticidal assays were performed by Kyung Nong Co. Ltd., Korea. In detail, please see the Supplementary materials.
Table S1 and S2: Larvicidal activity against Spodoptera (14 and 15a)
The lavicidal activities of synthesized compounds were evaluated by the leaf-dip procedure. 6 The aqueous solution of prepared compounds and chlorantraniliprole in acetone (H 2O : acetone = 95 : 5) were sprayed to a cabbage leave placed on moistened filter paper (disc, diameter 8.8 cm) in petri dishes. After allowing to dry, the dishes were infested with 10 Spodoptera litura (third-instar). After 1, 2, 3, and 4 days, percentage of mortalities was evaluated. The treatments were replicated three times. For negative control, larvicidal activities were 0 % at each time. Ref. is chlorantraniliprole as a positive control.
Table S1. Larvicidal activity depend on time against the 3 rd instar larvae of Spodoptera litura
Entry Compd Concentration Larvicidal activity (%) at 24 h
Entry Compd Concentration Larvicidal activity (%) at 48 h

[5] = 24 h, read-out: Larvicidal activity (%) at 24 h, Average, 24 h, 50 ppm, average of three replicates
[6] = 24 h, read-out: Larvicidal activity (%) at 24 h, replicate 1, 24 h, 50 ppm
[7] = 24 h, read-out: Larvicidal activity (%) at 24 h, replicate 2, 24 h, 50 ppm
[8] = 24 h, read-out: Larvicidal activity (%) at 24 h, replicate 3, 24 h, 50 ppm
[9] = 48 h, read-out: Larvicidal activity (%) at 48 h, Average, 48 h, 50 ppm, average of three replicates
[10] = 48 h, read-out: Larvicidal activity (%) at 48 h, replicate 1, 48 h, 50 ppm
[11] = 48 h, read-out: Larvicidal activity (%) at 48 h, replicate 2, 48 h, 50 ppm
[12] = 48 h, read-out: Larvicidal activity (%) at 48 h, replicate 3, 48 h, 50 ppm
[13] = 72 h, read-out: Larvicidal activity (%) at 72 h, replicate 1, 72 h, 50 ppm
[14] = 72 h, read-out: Larvicidal activity (%) at 72 h, replicate 2, 72 h, 50 ppm
[15] = 72 h, read-out: Larvicidal activity (%) at 72 h, replicate 3, 72 h, 50 ppm
[16] = 96 h, read-out: Larvicidal activity (%) at 96 h, replicate 1, 96 h, 50 ppm
[17] = 96 h, read-out: Larvicidal activity (%) at 96 h, replicate 2, 96 h, 50 ppm
[18] = 96 h, read-out: Larvicidal activity (%) at 96 h, replicate 3, 96 h, 50 ppm
[19] = read-out: Larvicidal Activity (%) at Time (h) 72 h, third instar larvae of S. litura, 72 h, concentration of 14 and 15a 50 ppm
[20] = read-out: Larvicidal Activity (%) at Time (h) 96 h, third instar larvae of S. litura, 96 h, concentration of 14 and 15a 50 ppm
[21] = third instar larvae of S. litura, 96 h, concentration of 14 and 15a 50 ppm

With `CNC(=O)c1cc(Cl)cc(C)c1NC(=O)c1cc(Br)nn1-c1ncccc1Cl` [Chlorantraniliprole, chlorantraniliprole, reference compound] the Permeability [1] was “- 4.3 ± 0.046”, the solubility ([2]; aqueous buffer, μSOL, at 25 ℃ and pH 7.4, read-out: Solubility (Equilibrium)) was 21.5 ± 1.59 µM and the solubility ([2]; pH 7.4, aqueous buffer) was 10.4 ± 0.771 µg/mL. For the same molecule, the logP ([3]; ACD/Labs T3 method (pH-metric), read-out: Log P) was 5.25, the “Eating area (%)” value ([4]; 25 ppm) was 0–5% and the mortality at 25 ppm ([4]; 24 h, read-out: Larvicidal activity (%) at 24 h, replicate 2, 24 h, 25 ppm) was 30%. For the same molecule, the mortality at 25 ppm ([4]; 48 h, read-out: Larvicidal activity (%) at 48 h, Average, 48 h, 25 ppm, average of three replicates) was 86.7%, the mortality at 25 ppm ([4]; 48 h, read-out: Larvicidal activity (%) at 48 h, replicate 1, 48 h, 25 ppm) was 90% and the mortality at 25 ppm ([4]; 48 h, read-out: Larvicidal activity (%) at 48 h, replicate 2, 48 h, 25 ppm) was 80%. For the same molecule, the mortality at 25 ppm ([4]; 48 h, read-out: Larvicidal activity (%) at 48 h, replicate 3, 48 h, 25 ppm) was 90%, the mortality at 25 ppm ([4]; 72 h, read-out: Larvicidal activity (%) at 72 h, Average, 72 h, 25 ppm, average of three replicates) was 100% and the mortality at 25 ppm ([4]; 72 h, read-out: Larvicidal activity (%) at 72 h, replicate 1, 72 h, 25 ppm) was 100%. The mortality at 25 ppm ([4]; 72 h, read-out: Larvicidal activity (%) at 72 h, replicate 2, 72 h, 25 ppm) was 100%, the mortality at 25 ppm ([4]; 72 h, read-out: Larvicidal activity (%) at 72 h, replicate 3, 72 h, 25 ppm) was 100% and the mortality at 25 ppm ([4]; 96 h, read-out: Larvicidal activity (%) at 96 h, Average, 96 h, 25 ppm, average of three replicates) was 100%. It also gave a mortality at 25 ppm ([4]; 96 h, read-out: Larvicidal activity (%) at 96 h, replicate 1, 96 h, 25 ppm) of 100%, a mortality at 25 ppm ([4]; 96 h, read-out: Larvicidal activity (%) at 96 h, replicate 2, 96 h, 25 ppm) of 100% and a mortality at 25 ppm ([4]; 96 h, read-out: Larvicidal activity (%) at 96 h, replicate 3, 96 h, 25 ppm) of 100%. It also gave a mortality ([4]; read-out: Larvicidal activity (%) at 24 h, replicate 2, 24 h, 25 ppm, listed as Ref.) of 20%, a mortality ([4]; read-out: Larvicidal activity (%) at 48 h, Average, 48 h, 25 ppm, average of three replicates, listed as Ref.) of 66.7% and a mortality ([4]; read-out: Larvicidal activity (%) at 48 h, replicate 2, 48 h, 25 ppm, listed as Ref.) of 70%. The mortality ([4]; read-out: Larvicidal activity (%) at 72 h, Average, 72 h, 25 ppm, average of three replicates) was 100%, the mortality ([4]; read-out: Larvicidal activity (%) at 72 h, replicate 1, 72 h, 25 ppm) was 100% and the mortality ([4]; read-out: Larvicidal activity (%) at 72 h, replicate 2, 72 h, 25 ppm) was 100%. For the same molecule, the mortality ([4]; read-out: Larvicidal activity (%) at 72 h, replicate 3, 72 h, 25 ppm) was 100%, the mortality ([4]; read-out: Larvicidal activity (%) at 96 h, Average, 96 h, 25 ppm, average of three replicates) was 100% and the mortality ([4]; read-out: Larvicidal activity (%) at 96 h, replicate 1, 96 h, 25 ppm) was 100%. It also gave a mortality ([4]; read-out: Larvicidal activity (%) at 96 h, replicate 2, 96 h, 25 ppm) of 100% and a mortality ([4]; read-out: Larvicidal activity (%) at 96 h, replicate 3, 96 h, 25 ppm) of 100%.
For `CNC(=O)c1cc(SC)cc(C)c1NC(=O)c1cc(Br)nn1-c1ncccc1Cl` [Compound 14, 3-Bromo-1-(3-chloropyridin-2-yl)-N-(2-methyl-6-(methylcarbamoyl)-4-(methylthio)phenyl)-1H-pyrazole-5-carboxamide], the Permeability [1] was “- 4.3 ± 0.047”, the solubility ([2]; pH 7.4, aqueous buffer) was 5.4 µM and 2.67 µg/mL and the logP [3] was 3.45. For the same molecule, the mortality at 50 ppm [4, 5] was 0%, the mortality at 50 ppm [4, 6] was 0% and the mortality at 50 ppm [4, 7] was 0%. It also gave a mortality at 50 ppm [4, 8] of 0%, a mortality at 50 ppm [4, 9] of 13.3% and a mortality at 50 ppm [4, 10] of 20%. It also gave a mortality at 50 ppm [4, 11] of 0%, a mortality at 50 ppm [4, 12] of 20% and a mortality at 50 ppm [4, 13] of 70%. The mortality at 50 ppm [4, 14] was 30%, the mortality at 50 ppm [4, 15] was 40% and the mortality at 50 ppm [4, 16] was 80%. For the same molecule, the mortality at 50 ppm [4, 17] was 70%, the mortality at 50 ppm [4, 18] was 70% and the mortality [4, 19] was 46.7%. The mortality [4, 20] was 73.3% and the “Eating Area (%) 96 h” value [4, 21] was 5–10%.
With `CNC(=O)c1cc(S(C)=NC(=O)C(F)(F)F)cc(C)c1NC(=O)c1cc(Br)nn1-c1ncccc1Cl` (stereo not drawn) [Compound 15a, 3-Bromo-1-(3-chloropyridin-2-yl)-N-(2-methyl-4-(S-methyl-N-(2,2,2-trifluoroacetyl)sulfinimidoyl)-6-(methylcarbamoyl)phenyl)-1H-pyrazole-5-carboxamide] the Permeability [1] was “- 4.5 ± 0.059”, the solubility ([2]; pH 7.4, aqueous buffer) was 397 µM and 241 µg/mL and the logP [3] was 3.74. It also gave a mortality at 50 ppm [4, 5] of 0%, a mortality at 50 ppm [4, 6] of 0% and a mortality at 50 ppm [4, 7] of 0%. The mortality at 50 ppm [4, 8] was 0%, the mortality at 50 ppm [4, 9] was 0% and the mortality at 50 ppm [4, 10] was 0%. It also gave a mortality at 50 ppm [4, 11] of 0%, a mortality at 50 ppm [4, 12] of 0% and a mortality at 50 ppm ([4]; 72 h, read-out: Larvicidal Activity (%) at Time (h) 72 h, third instar larvae of S. litura, 72 h, concentration of 14 and 15a 50 ppm) of 46.7%. The mortality at 50 ppm [4, 13] was 50%, the mortality at 50 ppm [4, 14] was 40% and the mortality at 50 ppm [4, 15] was 50%. The mortality at 50 ppm ([4]; 96 h, read-out: Larvicidal Activity (%) at Time (h) 96 h, third instar larvae of S. litura, 96 h, concentration of 14 and 15a 50 ppm) was 53.3%, the mortality at 50 ppm [4, 16] was 50% and the mortality at 50 ppm [4, 17] was 50%. For the same molecule, the mortality at 50 ppm [4, 18] was 60% and the “Eating Area (%) 96 h” value [4, 21] was 5–10%.
With `CNC(=O)c1cc([S+](C)[O-])cc(C)c1NC(=O)c1cc(Br)nn1-c1ncccc1Cl` (stereo not drawn) [Compound 15b, 3-bromo-1-(3-chloropyridin-2-yl)-N-(2-methyl-6-(methylcarbamoyl)-4-(methylsulfinyl)phenyl)-1H-pyrazole-5-carboxamide] the Permeability [1] was “- 4.8 ± 0.037”, the solubility ([2]; pH 7.4, aqueous buffer) was 486 µM and 248 µg/mL and the logP [3] was 2.59. The mortality [4, 19] was 0%, the mortality [4, 20] was 0% and the “Eating Area (%) 96 h” value [4, 21] was >30%.
With `CNC(=O)c1cc(S(C)(=O)=NC(=O)C(F)(F)F)cc(C)c1NC(=O)c1cc(Br)nn1-c1ncccc1Cl` (stereo not drawn) [Compound 16a, 3-Bromo-1-(3-chloropyridin-2-yl)-N-(2-methyl-4-(S-methyl-N-(2,2,2-trifluoroacetyl)sulfonimidoyl)-6-(methylcarbamoyl)phenyl)-1H-pyrazole-5-carboxamide] the Permeability [1] was “- 4.7 ± 0.075”, the solubility ([2]; pH 7.4, aqueous buffer) was 397 µM and 247 µg/mL and the logP [3] was 4.95. The mortality [4, 19] was 0%, the mortality [4, 20] was 0% and the “Eating Area (%) 96 h” value [4, 21] was >30%.
With `CNC(=O)c1cc(S(C)(=O)=O)cc(C)c1NC(=O)c1cc(Br)nn1-c1ncccc1Cl` [Compound 16b, 3-Bromo-1-(3-chloropyridin-2-yl)-N-(2-methyl-6-(methylcarbamoyl)-4-(methylsulfonyl)phenyl)-1H-pyrazole-5-carboxamide] the Permeability [1] was “- 4.5 ± 0.030”, the solubility ([2]; pH 7.4, aqueous buffer) was 124 µM and 65.6 µg/mL and the logP [3] was 3.04. The mortality [4, 19] was 0%, the mortality [4, 20] was 0% and the “Eating Area (%) 96 h” value [4, 21] was >30%.
With `CNC(=O)c1cc(C#N)cc(C)c1NC(=O)c1cc(Br)nn1-c1ncccc1Cl` [Cyantraniliprole, cyantraniliprole, reference compound] the Permeability [1] was “- 4.4 ± 0.077”, the solubility ([2]; pH 7.4, aqueous buffer) was 378 µM and 179 µg/mL and the logP [3] was 3.5.
